Here are results for 2 compounds from US5622989A, “Amino-benzofuryl-and thienyl-derivatives” (Bayer Aktiengesellschaft, priority 1994, dated 1997).

The test system of the test is human PMN. The test is described as follows: Inhibition of FMLP-stimulated production of superoxide radical anions. The class given is cell-based. The conditions noted are these: Neutrophil, neutrophils stimulated with 4×10^-8 M FMLP; for inhibition at 10 µM: 10 μM compound. The protocol: 1. Preparation of human PMN
Blood was taken from healthy subjects by venous puncture and neutrophils were purified by dextran sedimentation and resuspended in the buffered medium.
2. Inhibition of FMLP-stimulated production of superoxide racidal anions.
Neutrophils (2.5×10^5 ml^-1) were mixed with cytochrome C (1.2 mg/ml) in the wells of a microtitre plate. Compounds according to the invention were added in dimethyl sulphoxide (DMSO). Compound concentration ranged from 2.5 nM to 10 μM, the DMSO concentration was 0.1% v/v in all wells. After addition of cytochalasin b (5 μg×ml^-1) the plate was incubated for 5 min at 37° C. Neutrophils were then stimulated by addition of 4×10^-8 M FMLP and superoxide generation measured as superoxide dismutase inhibitable reduction of cytochrome C by monitoring the OD550 in a Thermomax microtitre plate spectrophotometer. Initial rates were calculated using a Softmax kinetic calculation programme. Blank wells contained 200 units of superoxide dismutase.
The inhibition of superoxide production was calculated as follows: [formula] Rx=Rate of the well containing the compound according to the invention. Ro=Rate in the control well.
Rb=Rate in the superoxide dismutase containing blank well.

As to `CSc1ccc(C(=O)c2oc3cc(NC(C)=O)ccc3c2CCC(=O)O)cc1` [Example 21], the inhibition (as a rule, how much of the control response was suppressed) at 10 µM is 90% and the IC50 (commonly the concentration at which inhibition is half-maximal) was determined as 420 nM.
For `COc1cccc(C(=O)c2oc3cc(NC(C)=O)ccc3c2CCC(=O)O)c1` [Example 24], in that order: 68% and 600 nM.
